Read-outs that look alike come from different tables or passages of the source.
Columns and labels:
APE1 [1] = biological target: T1, APE1 (Homo sapiens, UniProt P27695); assay: Fluorescence polarization (FP) displacement assay of APE1 binding to AP-DNA probe; settings: read-out: FP IC50;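 also: TAMRA 5′-labeled duplex DNA with THF abasic site (5 nM) and APE1 (20 nM), Mg2+-free buffer, 15 min at room temperature, inhibition seen as lowered polarization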
T1 construct: made in house

E. coli Endo IV = biological target: T2, E. coli Endo IV (Escherichia coli, UniProt P0A6C1); assay: E. coli Endo IV profiling counterscreen; type: biochemical; settings: for IC50: read-out: EndoIV IC50;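 as to all read-outs here: selectivity counterscreen of candidate APE1 inhibitors against the bacterial endonuclease Endo IV, run in the same assay format as the primary APE1 high-throughput screen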
T2 construct: made in house
Source text: In order to screen out nonselective compounds, such as non-specific DNA binders and inhibitors of related enzymes, we used a miniaturized ThO DNA displacement assay and a counterscreen against the bacterial endonuclease E. coli Endo IV, respectively, following the previously published protocols [21].
To probe the selectivity of the candidate APE1 inhibitors, we tested them against E. coli EndoIV [36], employing the same assay as used in the HTS.

[2] = biological target: double-stranded 17-mer DNA fragment; assay: ThO (Thiazole Orange) DNA displacement assay; type: binding;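 also: miniaturized displacement of the intercalating dye from unlabeled duplex DNA, used to flag nonspecific DNA binders, chiefly intercalators, groove binders may be missed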
APE1 [3] = biological target: T1, APE1; assay: Gel-based radiotracer (32P) APE1 incision assay; type: biochemical; set-up: concentration or dose not given beside the values; settings: percent incision shown; entries 1-112;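 also: APE1 incision reactions ran 5 min at 37 °C, with cleaved product and intact substrate resolved electrophoretically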
APE1 [4] = biological target: T1, APE1; assay: Fluorogenic kinetic qHTS APE1 incision assay (primary screen and retest of cherrypicked samples); type: biochemical;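 also: purified APE1 cleaving a fluorophore/dark-quencher labelled 17-mer duplex DNA bearing a tetrahydrofuran AP site, fluorescence rise followed kinetically over the first 2 min, inhibition normalized to controls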
[5] = initial quantitative high-throughput screen, read-out: APE1 qHTS IC50
[6] = retest of cherrypicked sample, read-out: APE1 Retest IC50

T1 sequence (P27695 whole entry): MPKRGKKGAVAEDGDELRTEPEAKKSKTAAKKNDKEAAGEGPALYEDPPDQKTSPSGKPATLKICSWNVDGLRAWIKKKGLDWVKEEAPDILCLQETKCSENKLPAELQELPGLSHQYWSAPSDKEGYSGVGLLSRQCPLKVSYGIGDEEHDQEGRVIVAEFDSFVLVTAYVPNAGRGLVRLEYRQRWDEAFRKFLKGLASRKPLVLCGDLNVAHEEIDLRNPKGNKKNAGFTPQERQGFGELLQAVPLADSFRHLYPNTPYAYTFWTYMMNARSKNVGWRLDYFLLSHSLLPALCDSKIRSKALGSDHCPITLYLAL

Compound	IC50 (APE1 [1]) [µM]	IC50 (E. coli Endo IV) [µM]	IC50 ([2]; read-out: ThO-DNA binding IC50) [µM]	Radiotracer Assay (%Activity) (APE1 [3]) [%]	IC50 (APE1 [4]; [5]) [µM]	IC50 (APE1 [4]; [6]) [µM]	Concentration response against EndoIV (E. coli Endo IV)	IC50 ([2]; read-out: ThO dye displacement IC50) [µM]
O=C(O)c1ccc(-n2cccc2/C=C2/NC(=O)N(c3cccc(Cl)c3)C2=O)cc1 [MLS000621695]	11.2	> 57	15.8	6	2.8	1.6		
CCOC(=O)c1cc(-c2ccc(N3CCOCC3)cc2)nn1-c1ccccc1C(=O)O [MLS000759946]	15.8	> 57	> 57	27	2.5	14.1		
Nc1ccc2c(c1Cl)C(=O)c1ccc(N)c(Cl)c1C2=O [MLS000737360]	7.9	> 57	6.3	17	8.9	6.3		
Cn1cnnc1SCC(=O)Nc1nc(-c2ccccc2)cs1 [MLS000711532]	> 57	> 57	> 57	32	28.2	10		
N#C/C(=C/c1cccn1-c1cccc(C(=O)O)c1)c1ccc(Cl)cc1 [MLS000621431]	> 57	> 57	> 57	44	11.2	5		
Cc1ccc(NC(=O)CN2C(=O)N/C(=C\c3cccn3-c3cccc(C(=O)O)c3)C2=O)cc1 [MLS000686355]	14.1	> 57	> 57	15	3.5	1.4		
O=c1nc(N/N=C/c2ccco2)cn[nH]1 [MLS000685729]	> 57	> 57	> 57	28		5		
COc1ccc(C(CC(=O)N2CCCCC2)c2c(OC)cc(OC)c3c(-c4ccccc4)cc(=O)oc23)cc1 (stereo not shown) [MLS000879461]	14.1	> 57	> 57	24	25.1	7.9		
phthalocyanine tetrasulfonate hydrate [NCGC00165867]	0.2		0.6	6.2	0.3	0.06	complete concentration response curves	0.631
N#Cc1ccccc1CN1C(=O)S/C(=C/c2cccn2-c2cccc(C(=O)O)c2)C1=O [MLS000539676]	> 57	> 57	> 57	25	19.9	14.1		
O=C1CCCC(O)=C1N=Nc1cccc(C(=O)O)c1 [MLS000759952]	> 57	> 57	> 57	10	10	12.6		
O=C(COC(=O)c1cc2c(s1)CCC2)Nc1ccc(F)cc1 [MLS000334872]	12.6	> 57	> 57	39		10		
O=C(O)c1cccc(-c2ccc(/C=c3/sc4nc5ccccc5n4c3=O)o2)c1 [MLS000777053]	7.9	> 57	6.3	23	10	5		
C[C@@]1(C(=O)O)NCCc2cc(O)c(O)cc21 [NCGC00024700]	> 57	> 57	> 57	17.1	1.8			
NC(=O)Cn1c(=O)n(Cc2ccco2)c(=O)c2c3c(sc21)CCCCC3 [MLS000559128]	7.1	> 57	> 57	21	31.6	10		
CC(=O)c1ccc(NC(=O)c2ccc3nc(-c4ccco4)c(-c4ccco4)nc3c2)cc1 [MLS000534769]	> 57	10	8.9	11	19.9	4		
O=c1cc(-c2ccc(O)cc2)oc2c(C3OCC(O)C(O)C3O)c(O)c(C3OC(CO)C(O)C(O)C3O)c(O)c12 (stereo not shown) [MLS000876755]	> 57	> 57	> 57	31	19.9	4.5		
O=c1ccc2[n+]([O-])c3ccc([O-])cc3oc-2c1.[Na+] [MLS000778776]	0.02	4.5	> 57	5	25.1	12.4		
